The structures appear in SMILES notation.

The target in the experiment is T1, hROMK (hKir1.1) (Homo sapiens, UniProt P48048).
T1 construct: expressed in transfected cells
T1 sequence (P48048 1-391): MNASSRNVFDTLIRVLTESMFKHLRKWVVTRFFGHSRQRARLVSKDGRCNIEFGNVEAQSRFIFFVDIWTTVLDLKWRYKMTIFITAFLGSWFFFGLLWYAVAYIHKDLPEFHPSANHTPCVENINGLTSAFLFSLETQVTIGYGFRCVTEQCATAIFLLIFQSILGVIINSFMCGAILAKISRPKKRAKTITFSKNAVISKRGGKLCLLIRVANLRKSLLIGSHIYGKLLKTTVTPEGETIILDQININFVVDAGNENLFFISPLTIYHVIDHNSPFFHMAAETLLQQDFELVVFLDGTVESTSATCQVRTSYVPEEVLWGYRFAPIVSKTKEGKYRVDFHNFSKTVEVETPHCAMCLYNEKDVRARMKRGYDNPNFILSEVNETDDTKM
The experiment in a line: Thallium Flux Assay. Type of experiment: cell-based. The conditions noted are these: HEK293 cells stably expressing hROMK (hKir1.1). An outline of the steps: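 HEK293 cells stably expressing hROMK were loaded with FluxOR dye for 90 min, then incubated with compound in probenecid assay buffer plus 0.3 mM ouabain, pH 7.4, for 30 min at 23-25 °C. Flux was triggered with 3 mM thallium/0.3 mM potassium (final) and read on FLIPR-Tetra for ~10 min. IC50 was calculated against the signal blocked by 3 μM control inhibitor.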
Regarding `Cc1c([C@@H](O)CN2CC[C@@H](NC(=O)c3ccc(-n4cnnn4)cn3)C2)ccc2c1COC2=O` [Example 62, N-((R)-1-((R)-2-Hydroxy-2-(4-methyl-1-oxo-1,3-dihydroisobenzofuran-5-yl)ethyl)pyrrolidin-3-yl)-5-(1H-tetrazol-1-yl)picolinamide], it took 370 nM to reach half-maximal inhibition (IC50). Take `Cc1cc(C(=O)NC2(C)CCN(C[C@H](O)c3ccc4c(c3C)COC4=O)CC2)ncc1-n1cnnn1` [Example 63, (R)-N-(1-(2-Hydroxy-2-(4-methyl-1-oxo-1,3-dihydroisobenzofuran-5-yl)ethyl)-4-methylpiperidin-4-yl)-4-methyl-5-(1H-tetrazol-1-yl)picolinamide]: the IC50 worked out at 860 nM. `Cc1c([C@@H](O)CN2CCC(NC(=O)c3cnc(-n4cnnn4)cn3)CC2)ccc2c1COC2=O` [Example 64, (R)-N-(1-(2-Hydroxy-2-(4-methyl-1-oxo-1,3-dihydroisobenzofuran-5-yl)ethyl)piperidin-4-yl)-5-(1H-tetrazol-1-yl)pyrazine-2-carboxamide]: the IC50 stood at 470 nM. The molecule `Cc1c([C@@H](O)CN2CCC(NC(=O)c3ccc(-n4cnnn4)nn3)CC2)ccc2c1COC2=O` [Example 65, (R)-N-(1-(2-Hydroxy-2-(4-methyl-1-oxo-1,3-dihydroisobenzofuran-5-yl)ethyl)piperidin-4-yl)-6-(1H-tetrazol-1-yl)pyridazine-3-carboxamide] had an IC50 of 110 nM. Regarding `Cc1c([C@@H](O)CN2CCC(NC(=O)c3ccc4nonc4c3)CC2)ccc2c1COC2=O` [Example 66, (R)-N-(1-(2-Hydroxy-2-(4-methyl-1-oxo-1,3-dihydroisobenzofuran-5-yl)ethyl)piperidin-4-yl)benzo[c][1,2,5]oxadiazole-5-carboxamide], the IC50 was determined as 220 nM. `Cc1c([C@@H](O)CN2CCCC(C)(CNC(=O)c3ccc(-n4cnnn4)cn3)C2)ccc2c1COC2=O` (stereo partly drawn) [Example 67, N-((1-((R)-2-Hydroxy-2-(4-methyl-1-oxo-1,3-dihydroisobenzofuran-5-yl)ethyl)-3-methylpiperidin-3-yl)methyl)-5-(1H-tetrazol-1-yl)picolinamide] came in with an IC50 of 360 nM. In turn, `Cc1c([C@@H](O)CN2CCC(CNC(=O)c3ccc(-n4cnnn4)cn3)(c3ccccc3)C2)ccc2c1COC2=O` (stereo partly drawn) [Example 68, N-((1-((R)-2-Hydroxy-2-(4-methyl-1-oxo-1,3-dihydroisobenzofuran-5-yl)ethyl)-3-phenylpyrrolidin-3-yl)methyl)-5-(1H-tetrazol-1-yl)picolinamide] displayed a half-maximal inhibitory concentration (IC50) of 630 nM.

Regarding `Cc1c([C@@H](O)CN2CCC(C3(NC(=O)c4ccc(-n5cnnn5)cn4)CCC3)C2)ccc2c1COC2=O` (stereo partly drawn) [Example 70, N-(1-(1-((R)-2-Hydroxy-2-(4-methyl-1-oxo-1,3-dihydroisobenzofuran-5-yl)ethyl)pyrrolidin-3-yl)cyclobutyl)-5-(1H-tetrazol-1-yl)picolinamide], the IC50 was 760 nM.

`Cc1c([C@@H](O)CN2CCC(C)(NC(=O)c3ccc(-n4cnnn4)nn3)CC2)ccc2c1COC2=O` [Example 71, (R)-N-(1-(2-Hydroxy-2-(4-methyl-1-oxo-1,3-dihydroisobenzofuran-5-yl)ethyl)-4-methylpiperidin-4-yl)-6-(1H-tetrazol-1-yl)pyridazine-3-carboxamide] had an IC50 of 280 nM. The molecule `Cc1c([C@@H](O)CN2CCC(C)(NC(=O)c3cnc(-n4cnnn4)cn3)CC2)ccc2c1COC2=O` [Example 72, (R)-N-(1-(2-Hydroxy-2-(4-methyl-1-oxo-1,3-dihydroisobenzofuran-5-yl)ethyl)-4-methylpiperidin-4-yl)-5-(1H-tetrazol-1-yl)pyrazine-2-carboxamide] returned an IC50 of 80 nM. `Cc1c([C@@H](O)CN2CCC(NC(=O)c3ccc(-n4cccn4)nc3)CC2)ccc2c1COC2=O` [Example 73, (R)-N-(1-(2-Hydroxy-2-(4-methyl-1-oxo-1,3-dihydroisobenzofuran-5-yl)ethyl)piperidin-4-yl)-6-(1H-pyrazol-1-yl)nicotinamide] returned an IC50 of 270 nM.

In turn, `Cc1c([C@@H](O)CN2CCC(NC(=O)c3ccc(-n4cncn4)cc3)CC2)ccc2c1COC2=O` [Example 74, (R)-N-(1-(2-Hydroxy-2-(4-methyl-1-oxo-1,3-dihydroisobenzofuran-5-yl)ethyl)piperidin-4-yl)-4-(1H-1,2,4-triazol-1-yl)benzamide] displayed an IC50 of 630 nM. `Cc1c([C@@H](O)CN2CCC(NC(=O)c3ccc(-c4nccs4)cc3)CC2)ccc2c1COC2=O` [Example 75, (R)-N-(1-(2-Hydroxy-2-(4-methyl-1-oxo-1,3-dihydroisobenzofuran-5-yl)ethyl)piperidin-4-yl)-4-(thiazol-2-yl)benzamide]: the IC50 amounted to 390 nM. For the molecule `Cc1c([C@@H](O)CN2C3CCC2CC(NC(=O)c2ccc(-n4cnnn4)cn2)C3)ccc2c1COC2=O` (stereo partly drawn) [Example 76, N-(8-((R)-2-Hydroxy-2-(4-methyl-1-oxo-1,3-dihydroisobenzofuran-5-yl)ethyl)-8-azabicyclo[3.2.1]octan-3-yl)-5-(1H-tetrazol-1-yl)picolinamide], half-maximal inhibition (IC50) required 430 nM. `Cc1c([C@@H](O)CN2CCC(C)(NC(=O)c3ccc4nonc4c3)CC2)ccc2c1COC2=O` [Example 77, (R)-N-(1-(2-Hydroxy-2-(4-methyl-1-oxo-1,3-dihydroisobenzofuran-5-yl)ethyl)-4-methylpiperidin-4-yl)benzo[c][1,2,5]oxadiazole-5-carboxamide] had an IC50 of 530 nM. Molecule `Cc1cc(C(=O)NC2CCN(C[C@H](O)c3ccc4c(c3C)COC4=O)CC2)ccc1-n1cnnn1` [Example 78, (R)-N-(1-(2-Hydroxy-2-(4-methyl-1-oxo-1,3-dihydroisobenzofuran-5-yl)ethyl)piperidin-4-yl)-3-methyl-4-(1H-tetrazol-1-yl)benzamide] yielded an IC50 of 560 nM.

`Cc1c([C@@H](O)CN2CCC(NC(=O)c3ccc(-n4cnnn4)c4ncccc34)CC2)ccc2c1COC2=O` [Example 79, (R)-N-(1-(2-Hydroxy-2-(4-methyl-1-oxo-1,3-dihydroisobenzofuran-5-yl)ethyl)piperidin-4-yl)-8-(1H-tetrazol-1-yl)quinoline-5-carboxamide] showed an IC50 of 370 nM. `Cc1c([C@@H](O)CN2CCCC(C(C)(C)NC(=O)c3ccc(-n4cnnn4)nc3)C2)ccc2c1COC2=O` (stereo partly drawn) [Example 80, N-(2-(1-((R)-2-Hydroxy-2-(4-methyl-1-oxo-1,3-dihydroisobenzofuran-5-yl)ethyl)piperidin-3-yl)propan-2-yl)-6-(1H-tetrazol-1-yl)nicotinamide] yielded an IC50 of 970 nM. The molecule `Cc1c([C@@H](O)CN2C3CCC2CC(NC(=O)c2ccc(-n4cnnn4)nc2)C3)ccc2c1COC2=O` (stereo partly drawn) [Example 82, N-(8-((R)-2-Hydroxy-2-(4-methyl-1-oxo-1,3-dihydroisobenzofuran-5-yl)ethyl)-8-azabicyclo[3.2.1]octan-3-yl)-6-(1H-tetrazol-1-yl)nicotinamide] came in with an IC50 of 250 nM.

On to `Cc1c([C@@H](O)CN2CCCC(C)(CNC(=O)c3ccc(-n4cnnn4)nc3)C2)ccc2c1COC2=O` (stereo partly drawn) [Example 83, N-((1-((R)-2-Hydroxy-2-(4-methyl-1-oxo-1,3-dihydroisobenzofuran-5-yl)ethyl)-3-methylpiperidin-3-yl)methyl)-6-(1H-tetrazol-1-yl)nicotinamide], for which the midpoint of inhibition, the IC50, lay at 720 nM.

As for `Cc1c([C@@H](O)CN2CCC(C)(CNC(=O)c3ccc(-n4cnnn4)nc3)C2)ccc2c1COC2=O` (stereo partly drawn) [Example 84, N-((1-((R)-2-Hydroxy-2-(4-methyl-1-oxo-1,3-dihydroisobenzofuran-5-yl)ethyl)-3-methylpyrrolidin-3-yl)methyl)-6-(1H-tetrazol-1-yl)nicotinamide], the IC50 stood at 190 nM. The molecule `Cc1cc(C(=O)NCC2CCN(C[C@H](O)c3ccc4c(c3C)COC4=O)C2)ncc1-n1cnnn1` (stereo partly drawn) [Example 85, N-((1-((R)-2-Hydroxy-2-(4-methyl-1-oxo-1,3-dihydroisobenzofuran-5-yl)ethyl)pyrrolidin-3-yl)methyl)-4-methyl-5-(1H-tetrazol-1-yl)picolinamide] registered an IC50 of 370 nM. To `Cc1c([C@@H](O)CN2CCC(CNC(=O)c3ccc(-n4cnnn4)cn3)C2)ccc2c1COC2=O` (stereo partly drawn) [Example 86, N-((1-((R)-2-Hydroxy-2-(4-methyl-1-oxo-1,3-dihydroisobenzofuran-5-yl)ethyl)pyrrolidin-3-yl)methyl)-5-(1H-tetrazol-1-yl)picolinamide] belongs 980 nM; to `Cc1c([C@@H](O)CN2CCC(N3Cc4cc([N+](=O)[O-])ccc4C3=O)CC2)ccc2c1COC2=O` [Example 88, (R)-2-(1-(2-Hydroxy-2-(4-methyl-1-oxo-1,3-dihydroisobenzofuran-5-yl)ethyl)piperidin-4-yl)-5-nitroisoindolin-1-one], 30 nM; to `Cc1c([C@@H](O)CN2CCC(CNC(=O)c3ccc4nonc4c3)C2)ccc2c1COC2=O` (stereo partly drawn) [Example 89, N-((1-((R)-2-Hydroxy-2-(4-methyl-1-oxo-1,3-dihydroisobenzofuran-5-yl)ethyl)pyrrolidin-3-yl)methyl)benzo[c][1,2,5]oxadiazole-5-carboxamide], 260 nM. On to `Cc1c([C@@H](O)CN2CCC(N3Cc4cc(-n5cnnn5)ccc4C3=O)CC2)ccc2c1COC2=O` [Example 91, (R)-2-(1-(2-Hydroxy-2-(4-methyl-1-oxo-1,3-dihydroisobenzofuran-5-yl)ethyl)piperidin-4-yl)-5-(1H-tetrazol-1-yl)isoindolin-1-one], for which half-maximal inhibition (IC50) was put at 130 nM.

The record behind these values is patent US9777002B2, “Inhibitors of the renal outer medullary potassium channel” (Merck Sharp & Dohme Corp., priority 2012, dated 2017).
